Laboratory results from ChEMBL document CHEMBL4814066, “Amphiphilic peptide-based MMP3 inhibitors for intra-articular treatment of knee OA” (Bioorg Med Chem, 2021).
The source made the active and inactive calls. No cut-off for these calls is given here. Residues, ends and D or L forms follow the SMILES beside them.

Assays:
[1] = Solubility in water at 1 mg/ml; format: physicochemical; conditions: buffer
Stromelysin-1 = Stromelysin-1 (Homo sapiens, UniProt P08254); test: Inhibition of human MMP3 catalytic subunit by fluorometric analysis
Chain of Stromelysin-1 (P08254 whole entry): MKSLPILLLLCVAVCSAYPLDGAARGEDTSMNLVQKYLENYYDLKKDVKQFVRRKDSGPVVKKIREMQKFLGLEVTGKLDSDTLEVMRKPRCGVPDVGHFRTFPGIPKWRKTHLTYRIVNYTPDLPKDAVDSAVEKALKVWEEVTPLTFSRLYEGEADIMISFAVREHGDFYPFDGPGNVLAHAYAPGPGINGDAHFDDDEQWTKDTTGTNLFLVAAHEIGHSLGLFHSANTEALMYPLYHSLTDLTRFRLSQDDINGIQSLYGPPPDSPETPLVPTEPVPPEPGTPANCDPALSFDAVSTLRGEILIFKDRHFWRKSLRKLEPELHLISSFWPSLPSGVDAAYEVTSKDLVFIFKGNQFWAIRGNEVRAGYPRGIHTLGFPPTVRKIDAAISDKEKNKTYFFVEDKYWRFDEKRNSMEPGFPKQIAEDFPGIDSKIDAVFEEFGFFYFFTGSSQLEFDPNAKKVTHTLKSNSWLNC

Cartilage tissue [2] = test: Antiinflammatory activity against bovine normal hyaline femoral condyles cartilage assessed as reduction in IL-1beta/OSM-induced collagen release at 6 to 127 uM incubated for 21 days with media replenishment for every 7 days relative to control; format: functional, tissue-based; conditions: Bos taurus, dose 6-127 µM, time 21.0 day
[3] = Cytotoxicity against mouse BALB/3T3 cells clone A31 incubated for 24 hrs by Alamar blue assay; format: cell-based; conditions: BALB/3T3 clone A31, 24 h
Cartilage tissue [4] = test: Antiinflammatory activity against bovine normal hyaline femoral condyles cartilage assessed as reduction in IL-1beta/OSM-induced collagen release at 93 uM incubated for 21 days with media replenishment for every 7 days relative to control; format: functional, tissue-based; conditions: Bos taurus, time 21.0 day

SMILES	solubility [1]	IC50 (Stromelysin-1) [µM]	Activity (Cartilage tissue [2])	IC50 [3] [µM]	Activity (Cartilage tissue [4])
CCCCCCCCCCCC(=O)N[C@@H](CS)C(=O)NCC(=O)N[C@@H](CCCNC(=N)N)C(=O)O (HELM PEPTIDE1{[CCCCCCCCCCCC(=O)[*:2]].C.G.R}$$$$V2.0)	Insoluble	7			
CC(=O)N[C@@H](CS)C(=O)NCC(=O)N[C@@H](CCCNC(=N)N)C(=O)O (Ac-Cys-Gly-Arg-OH)	Insoluble	850			
CCCCCCCCCCCC(=O)N[C@@H](CS)C(=O)NCC(=O)N[C@@H](CCCNC(=N)N)C(=O)N[C@@H](CCCCN)C(=O)O (HELM PEPTIDE1{[CCCCCCCCCCCC(=O)[*:2]].C.G.R.K}$$$$V2.0)	Soluble	3.2		186	Active
CCCCCCCCC/C=C/CCCCCCCC(=O)N[C@@H](CS)C(=O)NCC(=O)N[C@@H](CCCNC(=N)N)C(=O)O	Insoluble	> 50			
CC(=O)N[C@@H](CS)C(=O)NCC(=O)N[C@@H](CCCNC(=N)N)C(=O)N[C@@H](CCCCN)C(=O)O (Ac-CGRK-OH)	Soluble	> 50			
CCCCCCCCNC(=O)C[C@H](NC(=O)CNC(=O)[C@H](CS)NC(=O)[C@H](CCCNC(=N)N)NC(C)=O)C(N)=O (HELM PEPTIDE1{[ac].R.C.G.D.[am]}|CHEM1{[CCCCCCCCN[*:1]]}$PEPTIDE1,CHEM1,5:R3-1:R1$$$V2.0)	Soluble	61.4			
CC(C)[C@H](NC(=O)CNC(=O)[C@H](CS)NC(=O)[C@@H](N)CCCNC(=N)N)C(N)=O (H-RCGV-NH2)	Soluble	173			
CC(=O)N[C@@H](CCCNC(=N)N)C(=O)N[C@@H](CS)C(=O)NCC(N)=O (Ac-Arg-Cys-Gly-NH2)	Soluble	95.3			

The next lines start with results.

solubility [1]	IC50 (Stromelysin-1) [µM]	SMILES	Activity (Cartilage tissue [2])	IC50 [3] [µM]	Activity (Cartilage tissue [4])
Soluble	79.5	CCCC[C@H](NC(=O)CNC(=O)[C@H](CS)NC(=O)[C@H](CCCNC(=N)N)NC(C)=O)C(N)=O (HELM PEPTIDE1{[ac].R.C.G.[Nle].[am]}$$$$V2.0)			
Soluble	10.2	CC(=O)N[C@@H](CCCNC(=N)N)C(=O)N[C@@H](CS)C(=O)NCC(=O)N[C@H](C(N)=O)C(C)C (Ac-RCGV-NH2)	Active	253	
Insoluble	4.4	CCCCCCCC(=O)N[C@@H](CS)C(=O)NCC(=O)N[C@@H](CCCNC(=N)N)C(=O)O (HELM PEPTIDE1{[CCCCCCCC(=O)[*:2]].C.G.R}$$$$V2.0)			
Insoluble	> 200	CCCCCCCCNC(=O)C[C@H](NC(=O)CNC(=O)[C@H](CS)NC(=O)[C@@H](N)CCCNC(=N)N)C(N)=O (HELM PEPTIDE1{R.C.G.D.[am]}|CHEM1{[CCCCCCCCN[*:1]]}$PEPTIDE1,CHEM1,4:R3-1:R1$$$V2.0)			
